# Measurements from ChEMBL document CHEMBL1201862, “PubChem BioAssay data set” (2004).
# The source made the active and inactive calls.
# Legend:
# [1] = A cytotoxicity screen of small molecule inhibitors of the PhoP region in Salmonella typhi identified in the primary screen. [Related pubchem assays: 1850, 1864, 1985 ]; format: functional
# [2] = M. tuberculosis H37Rv growth inhibitors, H37Rv strain (AID 1626); format: functional
# cells = format: functional
# [3] = blockers of bursicon-stimulated LGR2 cAMP reporter – cell-based, HEK293, CRE-luciferase reporter, cherry pick, set 2, dose response (AID 743343); format: functional;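 note: transfected cells were stimulated with diluted bursicon conditioned medium after compound addition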
# [4] = blockade of melanocortin 4 receptor signaling – cell-based, plate reader, cherry pick, counter-screen for LGR2 antagonist project, dose response (AID 743444); format: functional;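 note: transfected HEK 293 cells stimulated with alpha-MSH peptide; potency of inhibitors of the alpha-MSH evoked signal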
# [5] = biological target: Eukaryotic translation initiation factor 4E (Mus musculus, UniProt P63073); assay: blockers of eIF4G binding by eIF4E – biochemical, TR-FRET, dose response (AID 855); format: functional;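 note: potency for disrupting eIF4E binding to eIF4GI seen as loss of FRET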
# HEK293 [6] = assay: inhibition of NOD1-driven NF-kB reporter – cell-based, luminescence, uHTS, primary screen (AID 1578); format: functional; conditions: Homo sapiens
# HEK293 [7] = assay: cells; format: functional, cell-based; conditions: Homo sapiens
# HEK293 [8] = assay: cells; format: functional, cell-based; conditions: Homo sapiens; remark: listed apart in the source
# [9] = biological target: Nucleotide-binding oligomerization domain-containing protein 2 (Homo sapiens, UniProt Q9HC29); assay: inhibition of NOD2-driven NF-kB reporter – cell-based, luminescence, uHTS, HEK293 (AID 1566); format: functional
# HEK293 [10] = assay: NOD2 signaling inhibitors in MDP-stimulated cells, cell-based, uHTS, luminescence (AID 2001); format: functional; conditions: Homo sapiens
# HEK293 [11] = assay: cells; format: functional, cell-based; conditions: Homo sapiens; remark: listed apart in the source
# Troponin, cardiac muscle = Troponin, cardiac muscle (Homo sapiens, UniProt P19429+P45379+P63316); assay: Fluorescence-based biochemical high throughput dose response assay for activators of the calcium sensitivity of cardiac Regulated Thin Filaments (RTF). [Related pubchem assays (depositor defined):AID493008, AID493018, AID504382, AID504383]; format: protein-complex assay
# Coagulation factor XII = biological target: T1, Coagulation factor XII (Homo sapiens, UniProt P00748); format: functional;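 note: activated factor XIIa alpha cleaving a fluorogenic AMC peptide substrate; inhibitor potency from loss of enzyme activity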
# T1 sequence (P00748 whole entry): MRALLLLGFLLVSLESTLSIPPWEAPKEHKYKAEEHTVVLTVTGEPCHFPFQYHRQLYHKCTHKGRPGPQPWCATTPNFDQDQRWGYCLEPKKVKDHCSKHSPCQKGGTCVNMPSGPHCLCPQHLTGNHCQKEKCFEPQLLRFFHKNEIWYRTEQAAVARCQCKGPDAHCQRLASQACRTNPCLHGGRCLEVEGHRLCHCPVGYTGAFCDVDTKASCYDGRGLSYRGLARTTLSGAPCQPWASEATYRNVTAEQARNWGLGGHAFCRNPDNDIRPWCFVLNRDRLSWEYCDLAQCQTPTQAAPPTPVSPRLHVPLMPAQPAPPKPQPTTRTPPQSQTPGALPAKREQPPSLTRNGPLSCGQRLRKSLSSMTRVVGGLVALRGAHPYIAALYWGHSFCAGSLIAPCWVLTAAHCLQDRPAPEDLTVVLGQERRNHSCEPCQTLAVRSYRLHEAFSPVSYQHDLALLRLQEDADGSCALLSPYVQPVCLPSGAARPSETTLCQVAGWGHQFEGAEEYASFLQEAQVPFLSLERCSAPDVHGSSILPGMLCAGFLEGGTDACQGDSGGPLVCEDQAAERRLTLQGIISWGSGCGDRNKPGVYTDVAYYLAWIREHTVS
Compound,EC50 (HEK293 [6]),IC50 (HEK293 [7]),IC50 (HEK293 [8]),IC50 (HEK293 [10]),IC50 (HEK293 [11]),also measured
O=C(COc1ccc2ccccc2c1)Nc1nccs1,,,,,,EC50 [1]: > 50 µM (active); IC50 [2]: > 100 µM (active); IC50 (cells): 22.3 µM (active); AC50 [3]: 7.4 µM (active); AC50 [4]: 18 µM (active)
O=C1c2ccccc2C(O)N1Cc1ccccc1Cl (stereo not drawn),,,,,,IC50 [5]: > 64 µM (inactive)
Cc1ccc(C(C)C)c(OCc2ccc(-c3nnco3)cc2)c1,13.2 µM (active),15.2 µM (active),> 20 µM (inactive),> 20 µM (inactive),> 20 µM (inactive),EC50 [9]: 14.6 µM (active)
CN1CCN(C2=CC(=O)OC23CCCCC3)CC1,,,,,,IC50 [5]: > 64 µM (inactive)
CCN(CC)C(=S)SCC(=O)c1c(C)[nH]c2ccccc12,,,,,,"EC50 (Troponin, cardiac muscle): > 71.5 µM (inactive)"
COC(=O)c1ccc(NCC(=O)Nc2cc(C)cc(C)c2)cc1,,,,,,IC50 (Coagulation factor XII): > 50 µM (inactive)
CCCCn1c(SCC(=O)N2CCN(c3ccccc3)CC2)nc2ccsc2c1=O,9.68 µM (active),11.5 µM (active),> 20 µM (inactive),8.34 µM (active),> 20 µM (inactive),EC50 [9]: 4.06 µM (active)
CC(C)CNC(=S)NC(=O)c1ccccc1Cl,,,,,,"EC50 (Troponin, cardiac muscle): > 71.4 µM (inactive)"
O=C(c1n[nH]cc1-c1ccc(Cl)cc1)C1CO1 (stereo not drawn),19.3 µM (active),4.08 µM (active),> 20 µM (inactive),5.72 µM (inactive),> 20 µM (inactive),
O=C(CSc1nc(-c2ccc(F)cc2)c[nH]1)NCc1ccco1,,,,,,EC50 [1]: > 50 µM (active)
